{"source": "patent US20250146074A1", "about": "(The General Hospital Corporation, priority 2023, published 2025)", "key": {"[1]": {"conditions": "in vivo; cited from earlier work"}, "[2]": {"test_system": "Firmicutes CAG:176 thiolase (FcTHL)", "experiment": "Kinetic assay of 5-ASA acetylation", "assay_type": "biochemical, Firmicutes bacterium CAG:176", "conditions": "5-ASA varied, 1 mM acetyl-CoA, 5 μM enzyme, 37° C.", "description": "The samples were injected into an Infinity Lab Poroshell120 Hilic column (2.1×100 mm 2.7 μm) at 25° C. […] This was followed by a 3 second gradient to 40% mobile phase B. This was then followed by a 27 second gradient returning to 5% mobile phase A at a flow rate of 1200 μL/min. This flow rate and ratio was held for an additional 48 seconds. Additional column equilibration was carried out on a secondary pump for 117 seconds at 5% mobile phase A and a flow rate of 1000 μL/min. MS was conducted in negative ion mode using electrospray ionization. […] Other MS settings were as follows: heater temp 300° C., ESI nebulizer 45 psi, spray voltage 3.5 kV, acquisition time 100 ms/spectrum. […] For absolute quantification, all samples were normalized to the taurine internal standard and concentrations calculated against a standard curve."}, "[3]": {"test_system": "F. prausnitzii acyl-CoA N-acetyltransferase (FpGNAT, UniRef90 ID C7H1G6)", "experiment": "In vitro mass spectrometry end-point assay for 5-ASA acetylation", "assay_type": "biochemical, Faecalibacterium prausnitzii", "conditions": "6 hr at 37° C., 1 mM of each substrate, 50 μM enzyme", "from_the_text": "(§1) Having identified thiolase and acyl-CoA N-acetyltransferase superfamilies with potential 5-ASA-inactivating capabilities, we sought to biochemically confirm these predicted activities in vitro. […] We expressed the known NAT from Salmonella enterica, the candidate thiolase from Firmicutes CAG:176 (UniRef90 ID R6CZ24), and the acyl-CoA N-acetyltransferase from F. prausnitzii (UniRef90 ID C7H1G6) for further biochemical characterization (FIG. 14a). […] The known S. enterica enzyme served as a positive control (FIG. 14b).\n(§2) Identities of the constructs were confirmed with DNA sequencing and then were transformed into E. coli BL21 strains for expression according to the standardized protocols from GenScript. All E. coli expression constructs were grown anaerobically in sealed Hungate tubes in Terrific Broth (VWR) supplemented with 5 mM MgSO4 and kanamycin (50 μg/mL) and were incubated at 37° C. overnight before dilution at 1:100 into fresh media the following morning. […]\n(§3) The samples were injected into an Infinity Lab Poroshell120 Hilic column (2.1×100 mm 2.7 μm) at 25° C. […] For absolute quantification, all samples were normalized to the taurine internal standard and concentrations calculated against a standard curve."}, "[4]": {"test_system": "Firmicutes CAG:176 thiolase (FcTHL, UniRef90 ID R6CZ24)", "experiment": "In vitro mass spectrometry end-point assay for 5-ASA acetylation", "assay_type": "biochemical, Firmicutes bacterium CAG:176", "conditions": "6 hr at 37° C., 1 mM of each substrate, 50 μM enzyme", "from_the_text": "as §1, §2, §3"}, "fecal metabolome": {"test_system": "fecal metabolome", "experiment": "Fecal metabolome pre- and post-5-ASA in new users (IBDMDB)", "assay_type": "in vivo, human", "conditions": "stool pre- vs post-5-ASA", "description": "A portion of each selected stool sample (40-100 mg) and the entire volume of originating ethanol preservative were stored in 15-ml centrifuge tubes at −80° C. until all samples were collected. Samples were then thawed on ice and centrifuged (4° C., 5,000 g) for 5 min. Ethanol was evaporated using a gentle stream of nitrogen gas using a nitrogen evaporator (TurboVap LV; Biotage) and stored at −80° C. until all samples in the study had been dried. After a homogenization and vortexing process, the mixture was aliquoted and stored at −80° C. until LC-MS analyses.\nA combination of four untargeted LC-MS methods were used to profile metabolites in the fecal homogenates, as previously published;^22 two methods that measure polar metabolites (a method that measures metabolites of intermediate polarity (for example, fatty acids and bile acids), and a lipid profiling method: 1) HILIC-pos (positive ion mode MS analyses of polar metabolites), 2) HILIC-neg (negative ion mode MS analysis of polar metabolites), 3) C18-neg (negative ion mode analysis of metabolites of intermediate polarity; for example, bile acids and free fatty acids), and 4) C8-pos. Lipids (polar and nonpolar). Additionally, pairs of pooled reference samples were inserted into the queue at intervals of approximately 20 samples for quality control and data standardization. […]\nRaw LC-MS data were acquired to the data acquisition computer interfaced to each LC-MS system and then stored on a robust and redundant file storage system (Isilon Systems) accessed via the internal network at the Broad Institute. […] Identification of nontargeted metabolite LC-MS peaks was conducted by: i) matching measured retention times and masses to mixtures of reference metabolites analyzed in each batch; and ii) matching an internal database of >600 compounds that have been characterized using the Broad Institute methods. Temporal drift was monitored and normalized with the intensities of features measured in the pooled reference samples. […]"}, "[5]": {"conditions": "human, in vivo; cited from earlier work"}, "colonic epithelial cells": {"test_system": "colonic epithelial cells", "conditions": "cited from earlier work"}, "[6]": {"conditions": "in vivo; cited from earlier work", "remark": "listed apart in the source"}, "[7]": {"test_system": "Firmicutes CAG:176 thiolase (FcTHL)", "experiment": "Promiscuity (substrate competition) assay of the thiolase with amine-containing xenobiotics", "conditions": "1 mM substrate, 5 μM enzyme, room temperature 1 hour", "description": "Enzyme concentrations were calculated according to Beer's Law with extinction coefficients calculated by Benchling software based on the amino acid sequences of the putative enzymes. […] Reactions were conducted at 37° C. for 6 hours for the initial endpoint assay and room temperature for 1 hour for the promiscuity assay. Quenching/extraction for the promiscuity assay was with equal volumes of acetonitrile and methanol. Quenching/extraction for the end-point was one part sample and nine-parts extraction mix (75% acetonitrile:25% methanol v/v with 10 μM 1,2-^13C2-taurine from Cambridge Isotopes as an internal standard for quantification). Samples were vortexed and cooled to −20° C. and then centrifuged prior to LC-MS analysis.\nFor the promiscuity assays, mass spectrometry analyses were conducted using an LC-MS system composed of an Agilent 1260 Infinity HPLC (Agilent Technologies) coupled to a 6530 Accurate-Mass QTOF LC-MS (Agilent Technologies). The samples were injected into a 150×3 mm Hypersil GOLD aQ column (Thermo Scientific) at 30° C. […] Remaining identities were inferred using calculated masses with a mass detection tolerance of 10 ppm. Raw data from the LC-MS were analyzed using Agilent MassHunter Qualitative Analysis 10.0 software."}}, "data": [{"smiles": "Nc1ccc(O)c(C(=O)O)c1", "note": "[5-ASA, 5-aminosalicylic acid]", "values": [{"measurement": "intraluminal stool concentrations of 5-ASA (median)", "setting": "[1]", "value": 30, "unit": "mM"}, {"measurement": "Km", "setting": "[2]; +/−0.46 mM", "value": 1880, "unit": "µM"}, {"measurement": "kcat", "setting": "[2]; +/−0.0199", "value": 0.00108, "unit": "s⁻¹"}, {"measurement": "conversion of 5-ASA to N-acetyl 5-ASA using acetyl-CoA", "setting": "[3]", "value": "> 25", "unit": "%"}, {"measurement": "conversion of 5-ASA to N-acetyl 5-ASA using acetyl-CoA", "setting": "[4]", "value": "> 25", "unit": "%"}, {"measurement": "abundance of fecal 2-aminoadipate following 5-ASA treatment", "setting": "fecal metabolome; 13 new users", "value": "reduced"}, {"measurement": "abundance of fecal nicotinic acid (NA) with 5-ASA", "setting": "fecal metabolome", "value": "dropped"}, {"measurement": "abundance of fecal nicotinuric acid (NUA) with 5-ASA", "setting": "fecal metabolome", "value": "dramatically increased"}, {"measurement": "IBD patients who fail to respond or eventually lose response", "setting": "[5]", "value": "over half"}]}, {"smiles": "CC(=O)Nc1ccc(O)c(C(=O)O)c1", "note": "[N-acetyl 5-ASA]", "values": [{"measurement": "bioavailability to colonic epithelial cells", "setting": "colonic epithelial cells", "value": "< 5", "unit": "%"}, {"measurement": "anti-inflammatory activity in placebo-controlled trials", "setting": "[6]", "value": "lacks anti-inflammatory activity"}]}, {"smiles": "NNc1nncc2ccccc12", "note": "[hydralazine]", "values": [{"measurement": "acetylation of the compound by the thiolase", "setting": "[7]", "value": "did not observe any acetylation"}]}, {"smiles": "CCN(CC)CCNC(=O)c1ccc(N)cc1", "note": "[procainamide]", "values": [{"measurement": "acetylation of the compound by the thiolase", "setting": "[7]", "value": "did not observe any acetylation"}]}]}
